Where “and” joins values, the source holds several entries; their conditions need not be identical. Equal entries are not always repeated.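 Exposure lasted 48 hours, with cells grown in 96-well plates and compounds tested at five concentrations. At the GI50, growth is halved. TGI denotes the concentration required for complete inhibition of growth.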
These compounds were tested on MDA-MB-468 breast (assay: inhibition of tumour cell growth, NCI panel, 48 h).

Structure (SMILES) | GI50 | TGI
CCCC1CCC(O)(C(C)(O)C(=O)NC2C(=O)N3NCCCC3C(=O)N(O)C(C)C(=O)N3NCCCC3C(=O)N3NCC(O)CC3C(=O)NC(C)C(=O)OC2C(C)C)OC1CC (stereo not given) | > 25 µM | > 25 µM
O=C(NCCCNC(=O)OCc1ccc2c(Br)cc(Br)c(O)c2n1)OCc1ccc2c(Br)cc(Br)c(O)c2n1 | > 100 µM | > 100 µM
O=C1C=CN(C2OC(CO)C(O)C2O)C(=O)C1 (stereo not given) | > 2500 µM | > 2500 µM
O=C(NCCN1CCOCC1)Nc1ccc(-c2cc3c(Nc4ccc(Oc5cccc(C(F)(F)F)c5)c(Cl)c4)ncnc3s2)cc1 | 1 µM | 2.5 µM
CCOC(=O)N1C/C(=C/c2ccc(OC)cc2)C(=O)/C(=C/c2ccc(OC)cc2)C1 | 1.54 µM | 4.04 µM
O=C1/C(=C/c2ccc([N+](=O)[O-])s2)Oc2ccccc21 | 0.39 µM | 2.17 µM
CCCCCC(=O)OCC(=O)O[C@@H]1C[C@]2(C(C)C)O[C@@]1(C)[C@@H]1CC[C@@H](C)[C@H]1[C@@H]2OC(=O)/C=C/c1ccccc1 | 27 µM | > 76.9 µM
C=CC[Se]C(=O)Cc1c(C)n(C(=O)c2ccc(Cl)cc2)c2ccc(OC)cc12 | 1.87 µM | 3.74 µM
CN1CCN(Cc2ccc(NC(=O)c3[nH]ncc3Nc3ncnc4sccc34)cc2)CC1 | 0.38 µM | 2.56 µM
Cc1ccc(S(=O)(=O)NC(CCC(=O)Nc2ccccc2)C(=O)Nc2ccccc2)cc1 (stereo not given) | 0.289 µM | 1.13 µM
Cc1ccccc1-n1c(/C=C\c2ccccn2)nc2ccccc2c1=O | 3.61 µM | 32.2 µM
COc1cccc2c1cc([N+](=O)[O-])c1c(C(=O)O)cc3c(c12)OCO3 | 8.57 µM | 26.1 µM
COc1cc(-c2nc(SCC(=O)Nc3ccc(C(C)=O)cc3)[nH]c(=O)c2C#N)cc(OC)c1OC | 25.4 µM | > 100 µM
Oc1ccc(/C=N/Nc2nc3ccccc3s2)c(O)c1 | 2.08 µM | 8.4 µM
COc1cc2nc(-c3ccc(-n4cncc4-c4ccc(N)cc4)cc3)sc2c(OC)c1OC | 1.82 µM | 4.47 µM
COC(=O)c1c2c(c(C)[n+]([O-])c1C)C(=O)C(NCc1cccc(OC)c1)=CC2=O | 1.52 µM | 3.84 µM
COc1cc(C2CC(c3ccc4c(c3)OCO4)=NN2C(C)=O)cc(OC)c1OC (stereo not given) | 0.289 µM | 1.71 µM
COc1ccc(C2C(c3ccccc3)C(=O)N2c2cc(OC)c(OC)c(OC)c2)cc1I (stereo not given) | 0.373 µM | > 100 µM
COc1ccc(NC(=O)Nc2ccc(Nc3nc(C)cc(Nc4ccc(C)cc4)n3)cc2)cc1 | 1.58 µM | 3.1 µM
CCCCN(CCCC)CC(C)(C)C(O)c1ccc(OC)c2ccccc12 (stereo not given) | 1.56 µM | 3.97 µM
NC(N)=N/N=C/c1cccc(Cl)c1Cl | 1.52 µM | 3.24 µM
CN(C)CCOC1(Cc2ccc(Cl)cc2Cl)CCC(C(C)(C)C)CC1 (stereo not given) | 1.78 µM and 1.77 µM | 3.47 µM and 3.49 µM
COc1ccc(NC(=O)c2sc3nc(C)c(C(O)c4ccc(OC)cc4)cc3c2N)cc1 (stereo not given) | 0.145 µM | 1.61 µM
CN(C)CCOc1nc2c3cccnc3cc(-c3cccc(Cl)c3)c2c2ncccc12 | 1.43 µM | 2.86 µM

Structure (SMILES) | GI50 | TGI
CCCC(=O)NC(c1ccc2c(c1)OCO2)c1ccc2cccnc2c1O (stereo not given) | 0.388 µM | 2.53 µM
CCCC[P+](c1ccccc1)(c1ccccc1)c1ccccc1 | 0.219 µM | 2.37 µM
C[C@@]1(c2ncncc2F)NC(=O)c2cc(-c3cn[nH]c3)ccc21 | 21.6 µM | 51.5 µM
COc1cccc(Cn2cc3c(c2)-c2oncc2CC3)c1 | 0.196 µM | 0.582 µM
CC[C@H](Nc1nc(N)nc(N)c1Cl)c1nc2cccc(NCc3ccc(C(=O)NO)cc3)c2c(=O)n1-c1ccccc1 | 1.5 µM | 3.42 µM
COc1ccc2[nH]c(-c3cccc(N(C)C)c3)cc(=O)c2c1 | 13.3 µM | > 100 µM
Oc1ccc(Br)cc1/C=N/NC(=S)NC12CC3CC(CC(C3)C1)C2 | 1.8 µM | 4.77 µM
CS(=O)c1ccc(-c2nc(-c3ccc(F)cc3)c(-c3ccncc3)[nH]2)cc1 (stereo not given) | 13.4 µM | > 60.6 µM
CC[C@@H](C)[C@H]([C@H](CC(=O)N1CCC[C@@H]1[C@@H](OC)[C@H](C)C(=O)N[C@H](Cc1ccccc1)c1nccs1)OC)N(C)C(=O)[C@H](NC(=O)[C@@H](C(C)C)N(C)C)C(C)C |  | 67.2 µM
N=C(N)c1ccc(-c2ccc(-c3ccc(Cl)cn3)s2)cc1 | 1.6 µM | 3.41 µM
CCCCCCNC(=O)Oc1ccc(/C(=C(\C)c2ccccc2)c2ccc(OCCN3CCCCC3)cc2)cc1 | 1.74 µM | 5.17 µM
COc1cc(-c2nn(C(=O)NS(=O)(=O)c3ccc(C)cc3)cc2-c2ccncc2)ccc1Cl | 2.91 µM | 19.8 µM
COC(=O)[C@@H](Cc1c[nH]c2ccccc12)NC(=O)/C=C/c1ccccc1 | 2.57 µM | 25.9 µM
Cc1[nH]nc2c1N=C(c1ccccc1F)c1cc(C#N)ccc1N2 | 0.0932 µM | 7.2 µM
CN(Cc1ccccc1)S(=O)(=O)/N=C1\NC(=O)NC1=C(Cl)Cl | 0.427 µM | 12.8 µM
CC(F)(F)c1cc(F)ccc1-c1sc2cc(O)ccc2c1Oc1ccc(/C=C/C(=O)O)cc1 | 5.94 µM | 43.4 µM
O=C(Nc1cccc2cccnc12)c1ccc(N2C(=O)[C@@H]3[C@H](C2=O)[C@@H]2C=C[C@H]3C2)cc1 | 14.2 µM | 81.4 µM
O=C(O)c1ccc(-c2ccc(C(=O)O)cc2I)c(I)c1 | > 100 µM | > 100 µM
CCn1c(-c2nonc2N)nc2c(C#CC(C)(C)O)nc(O[C@@H](CN)c3ccccc3)cc21 | 0.0173 µM | 0.435 µM
O=C(CC1(O)C(=O)Nc2ccc(Br)cc21)c1ccc(C(=O)NCC2CCC3(CC2)OOC2(CCCCC2)OO3)cc1 (stereo not given) | 3.13 µM | 20.3 µM
CC(C)c1cc(CNc2nc(Nc3cc(C4CC4)[nH]n3)cc(N3CCN(C)CC3)n2)on1 | 1.3 µM | 5.5 µM and 2.2 µM
COc1ccccc1CNC(=O)C1c2ccccc2C(=O)N(CC(C)C)C1c1cccs1 (stereo not given) | 12 µM | 60.5 µM
COc1cnc2c(c1)C(=O)c1c-2n(CCCN2CCNCC2)c(=O)c2cc(Cl)ccc12 | 0.552 µM | 2.2 µM
BrC(Br)(Br)c1cnc2ccccc2n1 | 1.15 µM | 2.76 µM
